Test results reported in patent publication US11434242B2, “Dopamine-b-hydroxylase inhibitors” (BIAL-PORTELA & Cª, S.A., priority 2017, dated 2022).

Target: T1, Dopamine beta hydroxylase (Homo sapiens, UniProt P09172)
T1 construct: 125 μl of plasma; tissue Instituto Português do Sangue Transplantação; host or cells: human plasma from healthy donors
T1 sequence (P09172 40-617 limits assumed): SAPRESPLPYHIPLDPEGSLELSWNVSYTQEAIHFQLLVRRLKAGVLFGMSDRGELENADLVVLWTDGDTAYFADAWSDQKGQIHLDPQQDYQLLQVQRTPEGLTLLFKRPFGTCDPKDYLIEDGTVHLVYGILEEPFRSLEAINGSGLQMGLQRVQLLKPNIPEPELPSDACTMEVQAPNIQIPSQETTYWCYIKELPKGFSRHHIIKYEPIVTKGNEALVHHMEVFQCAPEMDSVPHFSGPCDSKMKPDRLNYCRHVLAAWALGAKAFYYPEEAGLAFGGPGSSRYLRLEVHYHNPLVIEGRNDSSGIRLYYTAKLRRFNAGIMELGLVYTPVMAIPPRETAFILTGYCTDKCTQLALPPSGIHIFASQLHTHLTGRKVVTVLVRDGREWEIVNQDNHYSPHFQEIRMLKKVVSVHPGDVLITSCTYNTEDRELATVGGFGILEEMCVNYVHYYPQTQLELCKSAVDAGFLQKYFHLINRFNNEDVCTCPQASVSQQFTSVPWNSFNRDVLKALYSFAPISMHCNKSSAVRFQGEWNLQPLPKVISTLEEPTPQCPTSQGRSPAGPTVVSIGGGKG
Experiment: Dopamine beta hydroxylase activity in human plasma
Type: biochemical
Conditions: for Plasma (0.01 μM), activity in % of control: inhibitor 0.01 μM; for Plasma (0.1 μM), activity in % of control: inhibitor 0.1 μM
Summary of the method: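 Healthy-donor human plasma pre-incubated 10 min at 37° C with compound at final 10, 100 or 1000 nM in pH 5.0 acetate buffer with ascorbate, fumarate, pargyline, N-ethylmaleimide, catalase and copper sulfate. Tyramine substrate then added for 45 min; octopamine formed was isolated by SCX cartridge, periodate-converted and read at 330 nm; activity given as % control.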

Row | Structure (SMILES) | Plasma (0.01 μM), activity in % of control | Plasma (0.1 μM), activity in % of control
1 | CN(C(=O)Cc1c2n(c(=S)n1C)C[C@H](c1c(F)ccc(Br)c1F)C2)C1COC1 [Example 454, (S)-2-(6-(3-bromo-2,6-difluorophenyl)-2-methyl-3-thioxo-2,5,6,7-tetrahydro-3H-pyrrolo[1,2-c]imidazol-1-yl)-N-methyl-N-(oxetan-3-yl)acetamide] | 56.8 % of control | 8.1 % of control
2 | CN(C(=O)Cc1c2n(c(=S)n1C)C[C@@H](c1c(F)ccc(F)c1F)C2)[C@@H]1CCOC1 [Example 455, N-methyl-2-((R)-2-methyl-3-thioxo-6-(2,3,6-trifluorophenyl)-2,5,6,7-tetrahydro-3H-pyrrolo[1,2-c]imidazol-1-yl)-N—((R)-tetrahydrofuran-3-yl)acetamide] | 131.0 % of control | 50.2 % of control
3 | Cn1c(CCO)c2n(c1=S)C[C@H](c1c(F)ccc(Br)c1F)C2 [Example 456, (S)-6-(3-bromo-2,6-difluorophenyl)-1-(2-hydroxyethyl)-2-methyl-2,5,6,7-tetrahydro-3H-pyrrolo[1,2-c]imidazole-3-thione] | 86.8 % of control | 20.2 % of control
4 | CN1CC(NC(=O)Cc2c3n(c(=S)n2C)C[C@H](c2c(F)ccc(Br)c2F)C3)CCC1=O (stereo partly drawn) [Example 457, 2-((S)-6-(3-bromo-2,6-difluorophenyl)-2-methyl-3-thioxo-2,5,6,7-tetrahydro-3H-pyrrolo[1,2-c]imidazol-1-yl)-N-(1-methyl-6-oxopiperidin-3-yl)acetamide] | 42.1 % of control | 7.3 % of control
5 | Cn1c(CC(=O)N2CCC(CF)C2)c2n(c1=S)C[C@H](c1c(F)ccc(Br)c1F)C2 (stereo partly drawn) [Example 458, 2-((S)-6-(3-bromo-2,6-difluorophenyl)-2-methyl-3-thioxo-2,5,6,7-tetrahydro-3H-pyrrolo[1,2-c]imidazol-1-yl)-1-(3-(fluoromethyl)pyrrolidin-1-yl)ethan-1-one] | 58.5 % of control | 12.2 % of control
6 | Cn1c(CC(=O)N[C@H]2CCOC2)c2n(c1=S)C[C@H](c1c(F)ccc(Br)c1F)C2 [Example 459, 2-((S)-6-(3-bromo-2,6-difluorophenyl)-2-methyl-3-thioxo-2,5,6,7-tetrahydro-3H-pyrrolo[1,2-c]imidazol-1-yl)-N—((S)-tetrahydrofuran-3-yl)acetamide] | 65.6 % of control | 13.5 % of control
7 | [2H]C([2H])([2H])n1c(CC(=O)N2CCOCC2)c2n(c1=S)C[C@H](c1c(F)ccc(Cl)c1F)C2 [Example 460, (S)-2-(6-(3-chloro-2,6-difluorophenyl)-2-(methyl-d)-3-thioxo-2,5,6,7-tetrahydro-3H-pyrrolo[1,2-c]imidazol-1-yl)-1-morpholinoethan-1-one] | 43.9 % of control | 18.2 % of control
8 | [2H]C([2H])([2H])n1c(CC(=O)N[C@H]2CCOC2)c2n(c1=S)C[C@@]1(c3cc(Br)ccc3F)C[C@@H]21 [Example 461, 2-((5aS,6aR)-5a-(5-bromo-2-fluorophenyl)-2-(methyl-d)-3-thioxo-2,3,5,5a,6,6a-hexahydrocyclopropa[3,4]pyrrolo[1,2-c]imidazol-1-yl)-N—((S)-tetrahydrofuran-3-yl)acetamide] | 45.6 % of control | 6.9 % of control
9 | [2H]C([2H])([2H])n1c(CC(=O)O)c2n(c1=S)C[C@@]1(c3cc(Br)ccc3F)C[C@@H]21 [Example 462, 2-((5aS,6aR)-5a-(5-bromo-2-fluorophenyl)-2-(methyl-d)-3-thioxo-2,3,5,5a,6,6a-hexahydrocyclopropa[3,4]pyrrolo[1,2-c]imidazol-1-yl)acetic Acid] | 50.2 % of control | 10.3 % of control
10 | [2H]C([2H])([2H])n1c(CC(=O)NC2CCOCC2)c2n(c1=S)C[C@@]1(c3cc(Br)ccc3F)C[C@@H]21 [Example 463, 2-((5aS,6aR)-5a-(5-bromo-2-fluorophenyl)-2-(methyl-d)-3-thioxo-2,3,5,5a,6,6a-hexahydrocyclopropa[3,4]pyrrolo[1,2-c]imidazol-1-yl)-N-(tetrahydro-2H-pyran-4-yl)acetamide] | 29.1 % of control | 3.7 % of control
11 | [2H]C([2H])([2H])n1c(CC(=O)N[C@@H]2CCCOC2)c2n(c1=S)C[C@@]1(c3cc(Br)ccc3F)C[C@@H]21 [Example 464, 2-((5aS,6aR)-5a-(5-bromo-2-fluorophenyl)-2-(methyl-d)-3-thioxo-2,3,5,5a,6,6a-hexahydrocyclopropa[3,4]pyrrolo[1,2-c]imidazol-1-yl)-N—((R)-tetrahydro-2H-pyran-3-yl)acetamide] | 33.4 % of control | 4.5 % of control
12 | [2H]C([2H])([2H])n1c(CC(=O)N[C@@H]2CCOC2)c2n(c1=S)C[C@@]1(c3cc(Br)ccc3F)C[C@@H]21 [Example 465, 2-((5aS,6aR)-5a-(5-bromo-2-fluorophenyl)-2-(methyl-d)-3-thioxo-2,3,5,5a,6,6a-hexahydrocyclopropa[3,4]pyrrolo[1,2-c]imidazol-1-yl)-N—((R)-tetrahydrofuran-3-yl)acetamide] | 62.3 % of control | 9.0 % of control

Next, values leading:

Row | Plasma (0.01 μM), activity in % of control | Plasma (0.1 μM), activity in % of control | Structure (SMILES)
13 | 49.6 % of control | 6.5 % of control | CN(C(=O)Cc1c2n(c(=S)n1C)C[C@@]1(c3cc(Br)ccc3F)C[C@@H]21)[C@@H]1CCOC1 [Example 466, 2-((5aS,6aR)-5a-(5-bromo-2-fluorophenyl)-2-methyl-3-thioxo-2,3,5,5a,6,6a-hexahydrocyclopropa[3,4]pyrrolo[1,2-c]imidazol-1-yl)-N-methyl-N—((R)-tetrahydrofuran-3-yl)acetamide]
14 | 27.9 % of control | 4.0 % of control | CN(C(=O)Cc1c2n(c(=S)n1C)C[C@@]1(c3c(F)ccc(Cl)c3F)C[C@@H]21)[C@@H]1CCOC1 [Example 467, 2-((5aS,6aR)-5a-(3-chloro-2,6-difluorophenyl)-2-methyl-3-thioxo-2,3,5,5a,6,6a-hexahydrocyclopropa[3,4]pyrrolo[1,2-c]imidazol-1-yl)-N-methyl-N—((R)-tetrahydrofuran-3-yl)acetamide]
15 | 65.8 % of control | 13.1 % of control | CN(C(=O)Cc1c2n(c(=S)n1C)C[C@@]1(c3cc(Cl)ccc3F)C[C@@H]21)[C@@H]1CCOC1 [Example 468, 2-((5aS,6aR)-5a-(5-chloro-2-fluorophenyl)-2-methyl-3-thioxo-2,3,5,5a,6,6a-hexahydrocyclopropa[3,4]pyrrolo[1,2-c]imidazol-1-yl)-N-methyl-N—((R)-tetrahydrofuran-3-yl)acetamide]
16 | 33.7 % of control | 1.5 % of control | [2H]C([2H])([2H])n1c(CC(=O)NC2CCOCC2)c2n(c1=S)C[C@H](c1c(F)ccc(Cl)c1F)C2 [Example 469, (S)-2-(6-(3-chloro-2,6-difluorophenyl)-2-(methyl-d)-3-thioxo-2,5,6,7-tetrahydro-3H-pyrrolo[1,2-c]imidazol-1-yl)-N-(tetrahydro-2H-pyran-4-yl)acetamide]
17 | 112.0 % of control | 79.4 % of control | Fc1ccc(F)c([C@H]2Cc3c(CCN[C@@H]4CCOC4)[nH]c(=S)n3C2)c1F [Example 470]
18 | 63.3 % of control | 14.2 % of control | CC(C)NCCCc1[nH]c(=S)n2c1C[C@H](c1c(F)ccc(F)c1F)C2 [Example 472, (R)-1-(3-(isopropylamino)propyl)-6-(2,3,6-trifluorophenyl)-2,5,6,7-tetrahydro-3H-pyrrolo[1,2-c]imidazole-3-thione hydrofluoride]
19 | 98.9 % of control | 46.2 % of control | Cl.Fc1ccc(F)c([C@H]2Cc3c(CCNCC4CCOCC4)[nH]c(=S)n3C2)c1F [Example 473, (R)-1-(2-(((tetrahydro-2H-pyran-4-yl)methyl)amino)ethyl)-6-(2,3,6-trifluorophenyl)-2,5,6,7-tetrahydro-3H-pyrrolo[1,2-c]imidazole-3-thione hydrochloride]
20 | 92.5 % of control | 79.3 % of control | Cn1c(CCN2CCCC2)c2n(c1=S)C[C@@H](c1c(F)ccc(F)c1F)C2 [Example 474, (R)-2-methyl-1-(2-(pyrrolidin-1-yl)ethyl)-6-(2,3,6-trifluorophenyl)-2,5,6,7-tetrahydro-3H-pyrrolo[1,2-c]imidazole-3-thione hydrofluoride]
